Test results from patent US8071548B2, “Method of reducing injury to mammalian cells” (Nono, Inc., priority 2002, dated 2011).

Experiments:
nitrotyrosine = assay: Nitrotyrosine immunostaining (peroxynitrite formation); format: cell-based, mouse; conditions: pretreatment, 12 h post-NMDA challenge
Procedure: Cultures were fixed with warm 4% paraformaldehyde and 4% sucrose in PBS for 20 min, permeabilized with 0.1% Triton X-100 for 10 min at 4° C., and blocked with 10% goat serum in PBS for 1 h at RT. Immunofluorescence was visualized with an inverted Nikon microscope using a 40× oil immersion lens. FITC, rhodamine and Hoechst were visualized using 465-495 excitation and 515-555 nm emission, 510-560 nm excitation and 590 nm emission, and 340 nm excitation and 510 nm emission, respectively. Active caspase 3 was labelled by incubating the cultures with a purified rabbit monoclonal anti-active caspase 3 antibody (1:300; BD PharMingen) and a fluorescein-conjugated goat anti-mouse IgG secondary antibody (1:500; Transduction Labs). Nitrotyrosine was labelled by incubating the cultures with a rabbit polyclonal α-nitrotyrosine primary antibody (1:300; Upstate) and a rhodamine-conjugated goat anti-rabbit IgG secondary antibody (1:500; Transduction Labs). AIF was labelled by incubating the cultures with an AIF antibody (1:200; Santa Cruz, (Zhang et al., 2002)) and a rhodamine-conjugated goat anti-mouse IgG secondary antibody (1:500; Transduction Labs). In some experiments, nuclei were counter-stained with Hoechst 33258 (1:5,000, Transduction Labs).

traumatic brain injury = assay: Lateral fluid percussion injury model of TBI; format: in vivo, Sprague-Dawley rats; conditions: analyzed 24 h after injury
Procedure: Adult male Sprague-Dawley rats weighing approximately 350 g were ordered from Charles River and anesthesia was induced using a gaseous mixture of 1:2 oxygen:nitrous oxide with 2% halothane. The halothane level was reduced to 1% during surgical manipulations and weights were recorded prior to preparatory surgery. The preparatory surgery for these experiments included the cannulation of the left femoral vein and a 5 mm diameter craniotomy. The venous cannula is sealed and tucked inside the animal whereupon the wound is sutured. The center of the craniotomy lies about 2.5 mm to the right of the sagittal suture, between the bregma and lambda. A modified Leur-loc is attached to the perimeter of the craniotomy with superglue (FIG. 28).
Dental acrylic (GC America Inc, Alsip, Ill.) is applied around the modified Leur-loc to seal it into place. A small piece of gelfoam is placed into the opening and the skin is sutured over the entire setup. The animal is then returned to its cage. The following day, the animal is re-anesthetized, weighed, and its wound is re-opened. The gelfoam is removed and the animal is attached to the fluid percussion device via the modified Leur-loc. At this time, the animal is given a ˜20 ms saline injection at approximately 2.4 atmospheres (350 mV on the oscilloscope) using the fluid percussion injury device (Custom Design & Fabrication, Richmond, Va.) (FIG. 29).
On occasion, the animal ceases spontaneous breathing following the injury and 1-2 chest compressions are required for resuscitation. The modified Leur-loc along with the dental acrylic is removed en bloc immediately following the injury. The animal is placed on 100% oxygen while its wound is cleaned and resealed with Vetbond tissue adhesive (3M Worldwide, Maplewood, Minn.). The rat's body temperature during the recovery time is maintained at 37° C. with a homeothermic warming blanket (Harvard Bioscience Inc, Holliston, Mass.). The amount of time necessary for the righting reflex to return is recorded and the animal is placed back into its cage. At 3 h post-injury, the animal is re-anesthetized and weighed again. The wound overlying the femoral cannula is opened and the cannula is cleaned out using heparinized saline. […] The cannula is sealed, tucked again into the animal, and the wound is re-sutured. At 24 h post-injury, the animal is re-anesthetized and weighed again. The rat is transcardially perfused using heparinized saline to clean out the cardiovascular system, followed by a 4% formalin fixative solution. The rat is decapitated and left in the fixative solution overnight. The brain is extracted the following day and processed. The volume of damaged brain (FIG. 26, right graph) is assessed according to the same methods as described in Aarts et al., 2002, for assessing stroke volumes. […]

[1] = system: transient middle cerebral artery occlusion; assay: Transient MCAO, dose study of infarct size; format: in vivo, Sprague-Dawley rats
[2] = system: transient middle cerebral artery occlusion; assay: Transient MCAO, post-treatment study (1 h after MCAO onset); format: in vivo, Sprague-Dawley rats; conditions: 3 nMole/g i.v. 1 h after MCAO onset
Procedure: Next, I examined whether pretreatment with Tat-peptides would reduce stroke damage. Experiments were carried out in adult male Sprague-Dawley rats subjected to transient middle cerebral artery occlusion (MCAO) for 90 minutes by the intraluminal suture method (36,37). Animals were fasted overnight and injected with atropine sulfate (0.5 mg/kg IP). After 10 minutes anesthesia was induced with 3.5% halothane in a mixture of nitrous oxide and oxygen (Vol. 2:1) and maintained with 0.8% halothane. Rats were orally intubated, mechanically ventilated, and paralyzed with pancuronium bromide (0.6 mg/kg IV). Body temperature was maintained at 36.5-37.5° C. with a heating lamp. Polyethylene catheters in the femoral artery and vein were used to continuously record blood pressure and to sample blood for gas and pH measurements. […] This produces an extensive infarction encompassing the cerebral cortex and basal ganglia. […] Physiological parameters (body temperature, blood pressure, blood gases) were monitored and maintained throughout the experiment (Table 1). All experimental manipulations and analyses of data were performed by individuals blinded to the treatment groups. The extent of cerebral infarction was measured 24 h after MCAO onset (FIG. 7C inset). The postural reflex test (38), and the forelimb placing test (39) were used to grade neurological function on a scale of 0 to 12 (normal=0; worst=12) during MCAO (at 50 minutes) and 24 h thereafter.
Next, I examined whether treatment with Tat-NR2B9c could attenuate ischemic neuronal damage in-vivo when given after stroke onset. […] Infarction volume and neurological outcome measurements were performed at times identical to the pre-treatment study. Body temperature, blood pressure and blood gases were monitored throughout the 24 h experiment and maintained equivalent between groups (Table 2).

nNOS = assay: NMDA-evoked cGMP formation (surrogate of NO production by nNOS); format: cell-based, mouse; conditions: 50 nM, pre-treated 1 h, NMDA 0-1000 μM
Procedure: cGMP determinations were performed 10 min after challenging the cultures with NMDA, kainate, or high-K (FIGS. 4c-e) with the Biotrak cGMP enzyme immunoassay system according to the kit manufacturer's instructions (Amersham). Staining for NADPH diaphorase (FIG. 4b) was done as described in ref 12.

Tat-KLSSIESDV [Tat-NR2B9c]
nitrotyrosine immunoreactivity (nitrotyrosine): reduced nitrotyrosine immunoreactivity | total volume of injured brain (traumatic brain injury; 3 hours after TBI): significantly reduced | fraction of dead cells in cerebral cortex and hippocampus ipsilateral to the injury (traumatic brain injury; via femoral cannula 3 hours after TBI): markedly reduced fraction of dead cells | efficacy of the lowest dose versus higher doses ([1]; 0.03 nmole/g, 3 h after stroke onset): equally effective | infarct size versus control dose ([1]; 0.03, 0.3, 1 or 3 nmoles/g i.v. 3 h after stroke onset, measured 24 h after MCAO onset): significant reduction in infarct size | 24 h neurological scores [2]: significant improvement | reduction in cortical infarction volume ([2]; 24 h): 86.97±4.38% | reduction of volume of total cerebral infarction ([2]; 24 h, vs controls): 67.0±3.75% | suppression of NMDA-evoked increase in cGMP (average) (nNOS): 39.5±6.7%
